Like-named read-outs stand apart in the source and are kept apart here.

The target in this assay is Factor IXa (Homo sapiens, UniProt P00740). Kind of assay: Determination of inhibitory activity against Factor IXa (cleavage of fluorescent peptide CH3SO2-D-CHG-Gly-Arg-AFC). The settings on record: low enzyme format, read-out: FIXa Low Enzyme. Format: biochemical. The procedure: Determination of Inhibitory Activity Against Factor IXa
Formation of a clot to stem bleeding at a site of blood vessel injury involves the coordinated activity of a group of plasma proteins that initiate and propagate fibrin formation and subsequently protect fibrin from premature degradation. Factor IX is a key component of the plasma system that forms a fibrin clot at a site of vascular injury. The activity of Factor IXa is measured by monitoring the cleavage of the fluorescent peptide, CH3SO2-D-CHG-Gly-Arg-AFC.AcOH (“CHG” is cyclohexyl-glycine and “AFC” is trifluoro aminomethyl coumarin). Factor IXa cleaves the amide bond between Arg and AFC, thereby releasing the AFC fluorophore. The free AFC can be detected with a fluorescence detector at an excitation wavelength of 405 nm and emission wavelength of 510 nm.

Sequence of Factor IXa (P00740 227-461 limits assumed): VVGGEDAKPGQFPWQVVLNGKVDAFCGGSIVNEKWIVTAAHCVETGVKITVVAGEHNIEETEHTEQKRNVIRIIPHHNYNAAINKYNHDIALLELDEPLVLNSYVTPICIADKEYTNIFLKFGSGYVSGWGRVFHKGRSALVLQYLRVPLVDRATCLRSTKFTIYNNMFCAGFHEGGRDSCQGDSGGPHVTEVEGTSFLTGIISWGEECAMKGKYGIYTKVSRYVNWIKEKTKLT
Sequence of Factor IXa (P00740 47-191 partner limits assumed): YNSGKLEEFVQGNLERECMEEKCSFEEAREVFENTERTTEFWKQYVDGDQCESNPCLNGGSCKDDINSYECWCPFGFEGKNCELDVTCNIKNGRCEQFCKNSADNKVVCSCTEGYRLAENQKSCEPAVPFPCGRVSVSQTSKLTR

For the molecule `Nc1nsc2c1ccc1[nH]c([C@H](O)[C@H]3OCCN(c4cccc(C(O)C(F)(F)F)n4)C3=O)nc(=O)c12` (stereo partly drawn) [Example 25, (2R)-2-((S)-(3-Amino-9-oxo-6,9-dihydroisothiazolo[5,4-f]quinazolin-7-yl)(hydroxy)methyl)-4-(6-(2,2,2-trifluoro-1-hydroxyethyl)pyridin-2-yl)morpholin-3-one], the IC50 (Factor IXa Inhibition table) was 11.8 nM.

For the molecule `CC(O)(c1cccc(N2CCO[C@H]([C@@H](O)c3nc(=O)c4c(ccc5c(N)nsc54)[nH]3)C2=O)n1)C(F)(F)F` (stereo partly drawn) [Example 26, (2R)-2-((S)-(3-Amino-9-oxo-6,9-dihydroisothiazolo[5,4-f]quinazolin-7-yl)(hydroxy)methyl)-4-(6-(1,1,1-trifluoro-2-hydroxypropan-2-yl)pyridin-2-yl)morpholin-3-one], where the note is “Factor IXa Inhibition table”, the IC50 came to 19.3 nM. Take `Nc1nccc2cc3[nH]c([C@H](O)[C@H]4OCCN(c5ccn(-c6ccncc6)n5)C4=O)nc(=O)c3cc12` [Example 28, (R)-2-((S)-(6-Amino-4-oxo-1,4-dihydropyrido[3,4-g]quinazolin-2-yl)(hydroxy)methyl)-4-(1-(pyridin-4-yl)-1H-pyrazol-3-yl)morpholin-3-one]: under “table of additional examples”, the IC50 stood at 27.6 nM.

Source of the values: patent publication US9695198B2, “Factor IXa inhibitors” (MERCK SHARP & DOHME CORP., priority 2012, dated 2017).
